Holding throughout (format): in vivo, Long Evans rat
The test system of test [1] is ic-STZ-induced neurodegeneration. Kind of test: ic-STZ ± PPAR agonist: brain histopathology (H&E). Particulars: for preservation of cerebellar cortical architecture (H&E) / preservation of hippocampi and temporal lobes (H&E): 4 weeks after ic-STZ ± single IP PPAR agonist. The method, then:
In addition, at 4 weeks of age, memory and learning were evaluated using a Morris Water Maze (R. W. Hickey, M. Akino, S. Strausbaugh, G. M. De Courten-Myers. Use of the Morris water maze and acoustic startle chamber to evaluate neurologic injury after asphyxial arrest in rats. Pediatr Res 39(1) (1996), 77-84). The procedures and use of rats in these experiments were approved by the Lifespan-Rhode Island Hospital IACUC committee.
Histopathological and Immunohistochemical Staining Studies: Whole fresh brains were immersion fixed in Histofix (Amresco, Solon, Ohio) and then sectioned in the coronal plane along standardized landmarks, embedded in paraffin, and processed for histopathological studies. In addition, fresh brains were sectioned in the coronal plane to obtain a ˜3 mm thick slice that flanked the infundibulum. The 3-mm brain slice was snap frozen between two slabs of dry ice, and then stored at −80° C. for later RNA and protein studies. The residual tissue was immersion fixed and processed for histopathological studies. […] As negative controls for the immunostaining reactions, either the primary antibody was omitted or non-relevant monoclonal antibody to Hepatitis B virus was used in place of the relevant antibody. Immunoreactivity was detected using the avidin-biotin horseradish peroxidase complex method (S. M. de la Monte, T. Luong, T. R. Neely, D. Robinson, J. R. Wands. Mitochondrial DNA damage as a mechanism of cell loss in Alzheimer's disease. Lab Invest 80(8) (2000), 1323-35). All sections were examined under code.

A further test has as its system insulin receptor. The conditions noted are these: temporal lobe membrane extracts.
For a further test, the system named is IGF-II receptor. Particulars: temporal lobe membrane extracts.
The next test has as its system IGF-I receptor. The conditions noted are these: temporal lobe membrane extracts.
For test [2], the system named is GFAP, GSK-3β, phospho-GSK-3β, ubiquitin, tau, phospho-tau, β-actin. Kind of test: ic-STZ model: Western blot analysis of temporal lobe tissue. The conditions noted are these: 40 mg/kg ic-STZ, Mean±S.E.M. The method, then:
Western blot analysis was used to assess the levels of Akt, phospho-Akt, GSK-3β, phospho-GSK-3β, Tau, and β-actin. […] Protein concentration was determined using the bicinchoninic acid (BCA) assay (Pierce, Rockford, Ill.). Samples containing 100 μg of protein were fractionated by sodium dodecyl sulfate, polyacrylamide gel electrophoresis (SDS-PAGE). (Ausubel et al., Current Protocols in Molecular Biology (2000)). Proteins were transferred to Immobilon-P (Millipore Corporation, Bedford, Mass.) PVDF membranes and non-specific binding sites were adsorbed with SuperBlock-TBS (Pierce, Rockford, Ill.). Membranes were incubated over night at 4° C. with primary antibody (0.5-1 μg/ml) diluted in Tris-buffered saline (TBS; 50 mM Tris, 150 mM NaCl, pH 7.4) containing 1% bovine serum albumin and 0.05% Tween-20 (TBST-BSA). Immunoreactivity was detected using horseradish peroxidase (HRP) conjugated IgG (Pierce, Rockford, Ill.), Western Lightning chemiluminescence reagents (Perkin Elmer Life Sciences Inc., Boston, Mass.), and film autoradiography. All incubations were performed using gentle platform agitation. Immunoreactivity was quantified using the Kodak Digital Science Imaging Station (NEN Life Sciences, Boston, Mass.).
Western blot analysis was used to assess the levels of tau, phospho-tau, ubiquitin, GSK-3β, phospho-GSK-3β, GFAP, and β-actin as described above.
Studies were performed to determine if ic-STZ-induced neurodegeneration was associated with increased activation of GSK-3β (reduced phospho-GSK-3β/total GSK-3β ratio) and increased levels of phospho-tau. Since characteristic features of AD-type neurodegeneration also include increased ubiquitination of proteins, including tau (Godbolt et al., Arch. Neurol. 62:1097 (2005); Kosik et al., Biochim. Biophys. Acta 1739:298 (2005); de Vrij et al., Prog. Neurobiol. 74:249 (2004)) and gliosis associated with cell loss, Western blot analysis was used to measure ubiquitin and GFAP immunoreactivity as well. β-actin expression was measured as a […].
Values correspond to arbitrary densitometry units (Mean±S.E.M.). Results were analyzed using Student t-tests.
(In western blotting, separated proteins are transferred to a membrane and probed.)

“Also recorded” adds a separate entry of the source.

We go through four compounds from patent publication US7833513B2, “Treatment of Alzheimer's Disease” (Rhode Island Hospital, priority 2004, dated 2010).

Turning to `CC(C)(Sc1ccc(CCN(CCCCC2CCCCC2)C(=O)NC2CCCCC2)cc1)C(=O)O` [PPAR-α agonist, GW7647], in test [1], the “preservation of cerebellar cortical architecture (H&E)” value is given as “moderately effective; also recorded: markedly reduced”; the “preservation of hippocampi and temporal lobes (H&E)” value is recorded as “less effective than the PPAR-δ agonist”.
Take `CC(C)C[C@H](NC(=O)OCC1c2ccccc2-c2ccccc21)C(=O)O` [PPAR-γ agonist, F-L-Leu]: in test [1], the “preservation of cerebellar cortical architecture (H&E)” value was “ineffective”; the “preservation of hippocampi and temporal lobes (H&E)” value was “least effective”.
As to `CCCc1c(OCCCOc2ccc(OCC(=O)O)cc2)ccc(C(C)=O)c1O` [PPAR-δ agonist, L-165,041], in test [1], the “preservation of cerebellar cortical architecture (H&E)” value is “moderately effective; also recorded: markedly reduced”; the “preservation of hippocampi and temporal lobes (H&E)” value is recorded as “most striking therapeutic rescue”. In test [1] (FIG. 25A-E, control 30%), the “share of temporal cortex thickness spanned by the horizontal scale bar” value came out at 30%.
Take `CN(N=O)C(=O)NC1C(O)OC(CO)C(O)C1O` (centres unmarked) [STZ]: in the test on insulin receptor, the “reduction of mean equilibrium binding to the insulin receptor vs control” value is reported as “approximately 85%”. The “IGF-II binding vs control” value with IGF-II receptor is given as “significantly reduced”. Moreover, the “IGF-I binding vs control” value with IGF-I receptor was “increased, although the difference was not statistically significant”. For the same compound, in test [2], the “GFAP protein (Western blot)” value is given as 983591 ± 113549 arbitrary densitometry units, the “GSK-3β protein (Western blot)” value is reported as 149945 ± 15588 arbitrary densitometry units, the “Tau protein (Western blot)” value was 686442 ± 65138 arbitrary densitometry units and the “Ubiquitin protein (Western blot)” value is given as 1390824 ± 133586 arbitrary densitometry units. Further, in test [2], the “p-GSK-3β protein (Western blot)” value is listed as 2811 ± 296 arbitrary densitometry units; the “p-Tau protein (Western blot)” value is 3378 ± 920 arbitrary densitometry units; the “β-Actin protein (Western blot, negative control)” value was 196548 ± 14314 arbitrary densitometry units.
